Results published in PubChem BioAssay AID1963830 (Molecular Pharmacology Branch, DTP, NCI, 2024).

System: 922993-354-T-J3-PDC complex spheroid viability
Experiment: Anticancer human tumor 922993-354-T-J3-PDC patient-derived endometrial carcinoma cell line growth inhibition [POLQ]
Conditions: for IC50: curve of first compound; for viability, T/C: stronger effect = lower value; active = viability on the fitted dose curve at most 10% of control; inactive = the rest
Method in brief: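 Complex spheroid viability model combining PDC tumour cells with endothelial (HUVEC) and MSC stromal cells. Novobiocin, ART-558 or RP6685 were tested singly and in combination with standard and investigational anticancer drugs. Each was titrated in half-log steps from near clinical Cmax, or from 10 microM where Cmax was unknown.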

[1] = second compound 0.0316 µM, first compound 0.0316 µM
[2] = second compound 0.0316 µM, first compound 0.1 µM
[3] = second compound 0.0316 µM, first compound 0.316 µM
[4] = second compound 0.0316 µM, first compound 1 µM
[5] = second compound 0.0316 µM, first compound 3.16 µM
[6] = second compound 0.0316 µM, first compound 10 µM
[7] = second compound 0.1 µM, first compound 0.0316 µM
[8] = second compound 0.1 µM, first compound 0.1 µM
[9] = second compound 0.1 µM, first compound 0.316 µM
[10] = second compound 0.1 µM, first compound 1 µM
[11] = second compound 0.1 µM, first compound 3.16 µM
[12] = second compound 0.1 µM, first compound 10 µM
[13] = second compound 0.316 µM, first compound 0.0316 µM
[14] = second compound 0.316 µM, first compound 0.1 µM
[15] = second compound 0.316 µM, first compound 0.316 µM
[16] = second compound 0.316 µM, first compound 1 µM
[17] = second compound 0.316 µM, first compound 3.16 µM
[18] = second compound 0.316 µM, first compound 10 µM
[19] = second compound 1 µM, first compound 0.0316 µM
[20] = second compound 1 µM, first compound 0.1 µM
[21] = second compound 1 µM, first compound 0.316 µM
[22] = second compound 1 µM, first compound 1 µM
[23] = second compound 1 µM, first compound 3.16 µM
[24] = second compound 1 µM, first compound 10 µM
[25] = second compound 3.16 µM, first compound 0.0316 µM
[26] = second compound 3.16 µM, first compound 0.1 µM
[27] = second compound 3.16 µM, first compound 0.316 µM
[28] = second compound 3.16 µM, first compound 1 µM
[29] = second compound 3.16 µM, first compound 3.16 µM
[30] = second compound 3.16 µM, first compound 10 µM
[31] = second compound 10 µM, first compound 0.0316 µM
[32] = second compound 10 µM, first compound 0.1 µM
[33] = second compound 10 µM, first compound 0.316 µM
[34] = second compound 10 µM, first compound 1 µM
[35] = second compound 10 µM, first compound 3.16 µM
[36] = second compound 10 µM, first compound 10 µM
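Also: spheroids exposed to the agents for one week.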
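For viability, T/C in this document: 100% = DMSO vehicle control wells.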

O=C(Nc1ccc(O)c(NS(=O)(=O)c2ccc(F)cc2)c1)c1ccc(-c2ccccc2)cc1 + Nc1ccc(C#CCN(C(=O)Cc2ncc(C(F)(F)F)cc2C(F)(F)F)c2ccc(F)cc2)nn1
inactive: viability, T/C [1] 99.8% | viability, T/C [2] 107% | viability, T/C [3] 99.4% | viability, T/C [4] 102% | viability, T/C [5] 105% | viability, T/C [6] 96.2% | viability, T/C [7] 101% | viability, T/C [8] 97.6% | viability, T/C [9] 99.4% | viability, T/C [10] 97.6% | viability, T/C [11] 99.1% | viability, T/C [12] 102% | viability, T/C [13] 100% | viability, T/C [14] 100% | viability, T/C [15] 99.1% | viability, T/C [16] 95.1% | viability, T/C [17] 103% | viability, T/C [18] 105% | viability, T/C [19] 102% | viability, T/C [20] 94.8% | viability, T/C [21] 104% | viability, T/C [22] 93% | viability, T/C [23] 105% | viability, T/C [24] 99% | viability, T/C [25] 101% | viability, T/C [26] 97.7% | viability, T/C [27] 100% | viability, T/C [28] 97.4% | viability, T/C [29] 105% | viability, T/C [30] 103% | viability, T/C [31] 97.6% | viability, T/C [32] 99.7% | viability, T/C [33] 95% | viability, T/C [34] 99.1% | viability, T/C [35] 103% | viability, T/C [36] 102%
> 10000 nM: IC50 (second compound 0.0316 µM) | IC50 (second compound 0.1 µM) | IC50 (second compound 0.316 µM) | IC50 (second compound 1 µM) | IC50 (second compound 3.16 µM) | IC50 (second compound 10 µM)

CC1COCCN1c1cc(-c2ccnn2C)c2ccnc(-c3ccn[nH]3)c2n1 (stereo not drawn) + Nc1ccc(C#CCN(C(=O)Cc2ncc(C(F)(F)F)cc2C(F)(F)F)c2ccc(F)cc2)nn1
449 nM: IC50 (second compound 10 µM)
593 nM: IC50 (second compound 3.16 µM)
680 nM: IC50 (second compound 0.0316 µM)
717 nM: IC50 (second compound 0.316 µM)
inactive: viability, T/C [1] 107% | viability, T/C [2] 102% | viability, T/C [3] 72.5% | viability, T/C [4] 38.3% | viability, T/C [5] 21% | viability, T/C [6] 13.9% | viability, T/C [7] 109% | viability, T/C [8] 95.5% | viability, T/C [9] 70.7% | viability, T/C [10] 40% | viability, T/C [11] 14.2% | viability, T/C [12] 14.5% | viability, T/C [13] 104% | viability, T/C [14] 93.1% | viability, T/C [15] 72% | viability, T/C [16] 42.1% | viability, T/C [17] 18.9% | viability, T/C [18] 13.8% | viability, T/C [19] 102% | viability, T/C [20] 92.1% | viability, T/C [21] 78.2% | viability, T/C [22] 39.2% | viability, T/C [23] 16.8% | viability, T/C [25] 101% | viability, T/C [26] 89.5% | viability, T/C [27] 69.2% | viability, T/C [28] 33.8% | viability, T/C [29] 19.3% | viability, T/C [30] 11.5% | viability, T/C [31] 99.1% | viability, T/C [32] 80.2% | viability, T/C [33] 64.7% | viability, T/C [34] 23.1% | viability, T/C [35] 17.5% | viability, T/C [36] 13.2%
active: viability, T/C [24] 10.1%
729 nM: IC50 (second compound 1 µM)
653 nM: IC50 (second compound 0.1 µM)

C=CC(=O)N1CCN(c2nc(=O)n(-c3c(C)ccnc3C(C)C)c3nc(-c4c(O)cccc4F)c(F)cc23)C(C)C1 (stereo not drawn) + Nc1ccc(C#CCN(C(=O)Cc2ncc(C(F)(F)F)cc2C(F)(F)F)c2ccc(F)cc2)nn1
> 10000 nM: IC50 (second compound 0.0316 µM) | IC50 (second compound 0.1 µM) | IC50 (second compound 0.316 µM) | IC50 (second compound 1 µM) | IC50 (second compound 3.16 µM) | IC50 (second compound 10 µM)
inactive: viability, T/C [1] 105% | viability, T/C [2] 103% | viability, T/C [3] 96.5% | viability, T/C [4] 108% | viability, T/C [5] 105% | viability, T/C [6] 104% | viability, T/C [7] 110% | viability, T/C [8] 106% | viability, T/C [9] 104% | viability, T/C [10] 108% | viability, T/C [11] 107% | viability, T/C [12] 104% | viability, T/C [13] 107% | viability, T/C [14] 107% | viability, T/C [15] 103% | viability, T/C [16] 105% | viability, T/C [17] 104% | viability, T/C [18] 99.3% | viability, T/C [19] 107% | viability, T/C [20] 101% | viability, T/C [21] 99.6% | viability, T/C [22] 108% | viability, T/C [23] 101% | viability, T/C [24] 102% | viability, T/C [25] 101% | viability, T/C [26] 105% | viability, T/C [27] 104% | viability, T/C [28] 102% | viability, T/C [29] 103% | viability, T/C [30] 101% | viability, T/C [31] 97.3% | viability, T/C [32] 105% | viability, T/C [33] 105% | viability, T/C [34] 93.6% | viability, T/C [35] 101% | viability, T/C [36] 98.1%

COc1cccc(OCCCN)c1-c1cc(Nc2cnc(C#N)cn2)n[nH]1 + Nc1ccc(C#CCN(C(=O)Cc2ncc(C(F)(F)F)cc2C(F)(F)F)c2ccc(F)cc2)nn1
inactive: viability, T/C (second compound 0.0316 µM, first compound 0.00316 µM) 102% | viability, T/C (second compound 0.0316 µM, first compound 0.01 µM) 100% | viability, T/C [1] 98.2% | viability, T/C [2] 97.3% | viability, T/C [3] 83.4% | viability, T/C [4] 22.1% | viability, T/C (second compound 0.1 µM, first compound 0.00316 µM) 104% | viability, T/C (second compound 0.1 µM, first compound 0.01 µM) 99% | viability, T/C [7] 95.9% | viability, T/C [8] 98.5% | viability, T/C [9] 99.1% | viability, T/C [10] 23.8% | viability, T/C (second compound 0.316 µM, first compound 0.00316 µM) 102% | viability, T/C (second compound 0.316 µM, first compound 0.01 µM) 98.2% | viability, T/C [13] 94.7% | viability, T/C [14] 99.7% | viability, T/C [15] 92.3% | viability, T/C [16] 19.4% | viability, T/C (second compound 1 µM, first compound 0.00316 µM) 102% | viability, T/C (second compound 1 µM, first compound 0.01 µM) 105% | viability, T/C [19] 101% | viability, T/C [20] 96.3% | viability, T/C [21] 94% | viability, T/C [22] 16.9% | viability, T/C (second compound 3.16 µM, first compound 0.00316 µM) 96.1% | viability, T/C (second compound 3.16 µM, first compound 0.01 µM) 98.1% | viability, T/C [25] 99.2% | viability, T/C [26] 94.2% | viability, T/C [27] 44.3% | viability, T/C [28] 14.8% | viability, T/C (second compound 10 µM, first compound 0.00316 µM) 95.9% | viability, T/C (second compound 10 µM, first compound 0.01 µM) 92.8% | viability, T/C [31] 74.7% | viability, T/C [32] 18.3% | viability, T/C [33] 10.5% | viability, T/C [34] 10.6%
590 nM: IC50 (second compound 0.0316 µM)
670 nM: IC50 (second compound 0.1 µM)
52.3 nM: IC50 (second compound 10 µM)
609 nM: IC50 (second compound 1 µM)
277 nM: IC50 (second compound 3.16 µM)
617 nM: IC50 (second compound 0.316 µM)
